For eight molecules, TGI results are on record in PubChem BioAssay (NCI).

Among the test systems are SR leukemia; LOX IMVI melanoma; SK-MEL-28 melanoma; RXF 393 renal; OVCAR-5 ovarian; UO-31 renal; DU-145 prostate; NCI-H460 lung; M14 melanoma; OVCAR-8 ovarian; 786-0 renal; HCT-116 colon; MDA-N; TK-10 renal; A498 renal; OVCAR-4 ovarian; SW-620 colon; SK-MEL-2 melanoma; KM12 colon; NCI-H522 lung.
Common to all, as to assay: DTP human tumour cell line panel, 48 h

The structures appear in SMILES notation.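 Step 1: Grow cells in 96-well plates. Step 2: Expose to compound for 48 hours at 5 concentrations. Step 3: Interpolate endpoints linearly; if unreached, use highest concentration. Definition used: TGI = concentration required for complete inhibition of growth.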

Usually TGI stands for the concentration at which net growth stops. A high value points to less potent growth arrest. With `CN1C(=O)N/C(=C\c2ccc(S(=O)(=O)N/N=C\C(O)C(O)C(O)CO)cc2)C1=O` (stereo not drawn), the concentration for total growth inhibition (TGI) in the experiment on SR leukemia, in the experiment on LOX IMVI melanoma, in the experiment with SK-MEL-28 melanoma, in the experiment on RXF 393 renal, in the experiment with OVCAR-5 ovarian and with UO-31 renal was > 100 µM throughout. Further, the total growth inhibition concentration (TGI) in the experiment on DU-145 prostate, with NCI-H460 lung, in the experiment on M14 melanoma, in the experiment with OVCAR-8 ovarian, in the experiment with 786-0 renal and with HCT-116 colon was > 100 µM each time. Besides, the TGI with MDA-N, in the experiment with TK-10 renal, in the experiment with A498 renal, with OVCAR-4 ovarian, in the experiment with SW-620 colon and with SK-MEL-2 melanoma was > 100 µM in each case. The total growth inhibition concentration (TGI) in the experiment on KM12 colon was > 100 µM.
As to `O=C(NNc1ccnc2cc(Cl)ccc12)/C(=C\c1ccccc1Cl)NC(=O)c1ccccc1`, the TGI with SR leukemia was > 100 µM; with LOX IMVI melanoma, 32 µM; in the experiment with SK-MEL-28 melanoma it was > 100 µM; with RXF 393 renal, > 100 µM; in the experiment on OVCAR-5 ovarian, > 100 µM; in the experiment on UO-31 renal, > 100 µM. The TGI was > 100 µM with DU-145 prostate; > 100 µM with NCI-H460 lung; > 100 µM in the experiment with M14 melanoma; 43.5 µM in the experiment on OVCAR-8 ovarian; > 100 µM with 786-0 renal; > 100 µM in the experiment with HCT-116 colon. The concentration for total growth inhibition (TGI) with MDA-N was > 100 µM; in the experiment with TK-10 renal, > 100 µM; with NCI-H522 lung, 39.9 µM; with OVCAR-4 ovarian it was > 100 µM; with SW-620 colon, > 100 µM; in the experiment with SK-MEL-2 melanoma, 46.1 µM. Besides, the TGI in the experiment with KM12 colon stood at 51.6 µM.
With `Cc1nc2ccccc2c(=O)n1NC(=O)c1ccc([N+](=O)[O-])cc1`, the TGI in the experiment with SR leukemia, with LOX IMVI melanoma, in the experiment with SK-MEL-28 melanoma, with RXF 393 renal, with OVCAR-5 ovarian and with UO-31 renal was > 100 µM each time. Besides, the TGI in the experiment on DU-145 prostate, with NCI-H460 lung, in the experiment with M14 melanoma, with OVCAR-8 ovarian, with 786-0 renal and with HCT-116 colon was > 100 µM each time. Further, the TGI in the experiment with MDA-N, in the experiment with TK-10 renal, with A498 renal, in the experiment on NCI-H522 lung, in the experiment with OVCAR-4 ovarian and in the experiment on SW-620 colon was > 100 µM throughout. In the experiment on KM12 colon, the total growth inhibition concentration (TGI) is > 100 µM.
As for `CCCCOC(=O)NC(Nc1ccc(S(=O)(=O)Nc2ccc(OC)nn2)cc1)(C(F)(F)F)C(F)(F)F`, the TGI in the experiment with SR leukemia, in the experiment with LOX IMVI melanoma, in the experiment on SK-MEL-28 melanoma, with RXF 393 renal, in the experiment with OVCAR-5 ovarian and in the experiment with UO-31 renal was > 100 µM throughout. Also, the TGI in the experiment on DU-145 prostate, with NCI-H460 lung, in the experiment on M14 melanoma, in the experiment with OVCAR-8 ovarian, in the experiment with 786-0 renal and in the experiment on HCT-116 colon was > 100 µM throughout. For the same molecule, the concentration for total growth inhibition (TGI) in the experiment on MDA-N, in the experiment with TK-10 renal, in the experiment with A498 renal, with OVCAR-4 ovarian, in the experiment with SW-620 colon and with KM12 colon was > 100 µM in each case.
Regarding `CCOP(=O)(OCC)C(N)Cc1ccc(OC)c(OC)c1` (stereo not drawn), the TGI with SR leukemia, in the experiment on SK-MEL-28 melanoma, in the experiment with RXF 393 renal, in the experiment with OVCAR-5 ovarian, in the experiment with UO-31 renal and with DU-145 prostate was > 100 µM throughout. Further, the TGI in the experiment with NCI-H460 lung, in the experiment with M14 melanoma, in the experiment on OVCAR-8 ovarian, in the experiment on 786-0 renal, with HCT-116 colon and with MDA-N was > 100 µM throughout. In addition, the concentration for total growth inhibition (TGI) in the experiment with TK-10 renal, in the experiment with A498 renal, in the experiment on NCI-H522 lung, in the experiment on OVCAR-4 ovarian, in the experiment with SW-620 colon and in the experiment with SK-MEL-2 melanoma was > 100 µM each time. Moreover, the concentration for total growth inhibition (TGI) in the experiment on KM12 colon is > 100 µM.
Consider `COCc1cc2c(cc1/C(=C/[N+](=O)[O-])CS(=O)(=O)c1ccccc1)OCO2`, for which the total growth inhibition concentration (TGI) with SR leukemia, in the experiment on LOX IMVI melanoma, with SK-MEL-28 melanoma, in the experiment on RXF 393 renal, with OVCAR-5 ovarian and with UO-31 renal was > 100 µM in each case. Besides, the TGI in the experiment on DU-145 prostate, with NCI-H460 lung, in the experiment on M14 melanoma, in the experiment on OVCAR-8 ovarian, with 786-0 renal and in the experiment with HCT-116 colon was > 100 µM in each case. Further, the TGI in the experiment with MDA-N, in the experiment with TK-10 renal, with A498 renal, in the experiment with NCI-H522 lung and in the experiment with SW-620 colon was > 100 µM in each case.
As to `COc1cc(=O)n2c3ccccc3n(C)c2c1C#N`, the TGI in the experiment on SR leukemia, in the experiment on RXF 393 renal, in the experiment on OVCAR-5 ovarian, in the experiment on UO-31 renal, with DU-145 prostate and in the experiment with NCI-H460 lung was > 100 µM each time. Also, the TGI in the experiment on M14 melanoma, in the experiment on OVCAR-8 ovarian, in the experiment on 786-0 renal, in the experiment on HCT-116 colon, in the experiment with MDA-N and in the experiment on TK-10 renal was > 100 µM in each case. The TGI in the experiment with A498 renal, with NCI-H522 lung, in the experiment on OVCAR-4 ovarian, in the experiment on SW-620 colon, with SK-MEL-2 melanoma and in the experiment with KM12 colon was > 100 µM in each case.
`CC(=O)OC[C@@H]1[C@H]2CC[C@]3(C)[C@@H](OC(C)=O)CC[C@H]3[C@@H]2CC[C@H]1C1(C)SCCS1`: the TGI in the experiment on SR leukemia, with LOX IMVI melanoma, in the experiment on SK-MEL-28 melanoma, with RXF 393 renal, in the experiment on OVCAR-5 ovarian and with UO-31 renal was > 25 µM in each case. The TGI with DU-145 prostate, in the experiment with NCI-H460 lung, in the experiment on M14 melanoma, in the experiment on OVCAR-8 ovarian, with 786-0 renal and in the experiment with HCT-116 colon was > 25 µM throughout. For the same molecule, the total growth inhibition concentration (TGI) with MDA-N, in the experiment with TK-10 renal, in the experiment with A498 renal, with NCI-H522 lung, in the experiment on OVCAR-4 ovarian and in the experiment on SW-620 colon was > 25 µM each time. The TGI with KM12 colon was > 25 µM.
